Experimental data taken from patent US7820817B2, “Modulators of muscarinic receptors” (Vertex Pharmaceuticals Incorporated, priority 2004, dated 2010).

Tested on: at least one muscarinic receptor, M1, M2, M3, M4
Assay: Muscarinic modulation activity (Table 3)
Format: cell-based
Design: key: +++: exhibited muscarinic modulation activity for at least one muscarinic receptor, M1, M2, M3, M4, at a concentration of less than 5 μM; ++: exhibited muscarinic modulation activity for at least one muscarinic receptor, M1, M2, M3, M4, at a concentration of between 30 μM and 5 μM; +: exhibited muscarinic modulation activity for at least one muscarinic receptor, M1, M2, M3, M4, at a concentration of greater than 30 μM; −: were not assayed or did not exhibit muscarinic modulation activity for at least one muscarinic receptor, M1, M2, M3, M4, at the concentration at which the assay was performed
Details: concentration at which modulation of at least one muscarinic receptor, M1, M2, M3, M4, was exhibited; CHO cells
Experimental: CHO cells expressing muscarinic receptors (M1 to M5) are grown as monolayers in tissue culture flasks at 37° C. in a humidified atmosphere containing 5% CO2 and passaged every 3-5 days. The growth media is Dulbecco's modified eagles medium (DMEM, Gibco Cat#12430-054), containing 25 mM Hepes and supplemented with Fetal Bovine Serum (Hyclone, cat#SH30071.03), 0.1 mM of MEM non-essential amino acids (GIBCO, Cat#11140-050), 1 mM MEM Sodium Pyruvate (GIBCO Cat#11360-070) and 100 units/ml of Penicillin G and 100 μg/ml of Streptomycin (GIBCO Cat#15140-122). The recombinant muscarinic receptor cell lines are grown under antibiotic pressure with media containing 25 μg/ml zeocin and 500 μg/ml G418 (M1-CHO), 4 μg/ml puromycin, 50 μg/ml zeocin and 2.5 μg/ml blasticidin (M2 and M4-CHO) or 50 μg/ml zeocin and 4 μg/ml puromycin (M3 and M5-CHO).
Cells are harvested at 80-90% confluence using Versene (GIBCO Cat#15040-066), collected by centrifugation and seeded 18-24 hrs prior to running the calcium assay at a density of 5,000-10,000 cells/well in […], clear-bottomed 384-well plates (BD Biocoat, poly-D-lysine, Cat#356663). The day of the experiment, the cells are washed with a plate washer (Bioteck Instruments, ELX 405) using bath1 buffer (140-mM NaCl, 4.5-mM KCl, 2-mM CaCl2, 1-mM MgCl2, 10-mM Hepes-Na, 10-mM Glucose, pH 7.4, with NaOH) containing 1 mM Probenecid. Next, the calcium dye Fluo-3 (25 μl/well of Fluo-3 AM at 4 μM, Molecular Probes F-1241, in Bath 1 buffer containing 1 mM Probenecid) is added to the 25 μl of Bath 1 remaining in each well after the plate wash and the dye is loaded at 37° C. in the tissue culture incubator for 60-90 min. The fluorescent dye is removed using the plate washer with Bath 1 containing 1 mM Probenecid, leaving 25 μl/well of this solution after the wash. Alternatively, cells can be loaded with the calcium indicator from Molecular Devices (Calcium 3 Assay Reagents, Cat #R7181) adding 5 μl of a 5× solution dye in Bath 1 containing 1 mM Probenecid (10 ml per dye flask cat#R7182 to generate a solution […]) to 20 μl of the same buffer. After loading for 60 min. the experiment can be run without having to remove the dye.
Compounds are prepared at a 2× fold concentration in a 96-well plate (round bottom, Costar Corning cat#3656), by reconstituting the pre-spotted compounds in bath 1 containing 1 mM probenecid. The final concentration DMSO is 0.5%, and the amount of DMSO is normalized across the assay plate. To determine an agonist action of the compounds on muscarinic receptors, the reconstituted compounds are added (25 μl compound/well) to the cell assay plate (containing 25 μl/well) using the multi-channel robotic system of the FLIPR 3 Instrument (Molecular Devices, Sunnyvale, Calif.). To determine a functional inhibitory action of the compounds on muscarinic receptors, the reconstituted compounds are added (25 μl compound/well) to the assay plate and pre-incubated for 15 min prior to adding 25 μl of Carbachol at 3× the EC80 for each muscarinic subtype. Alternatively, the compounds can be co-applied simultaneously with the agonist. In both assay modes, the fluorescence is recorded for 60 sec (excitation wavelength is […] and emission wavelength 540 nm) using the FLIPR 3 instrument.
The potency, efficacy and selectivity of the muscarinic compounds were evaluated by screening the compound activity across the whole family (M1 to M5 cells).
CHO cells expressing muscarinic receptors (M1 to M5) and containing a gene reporter system β-Lactamase) with transcriptional control mediated by calcium release (NFAT activation). See Zlokarnik, G; Negulescu, P. A.; Knapp, T. E.; Mere, L; Burres, N; Feng, L; Whitney, M; Roemer, K; Tsien, R. Y. Quantitation of transcription and clonal selection of single living cells with β-lactamase as reporter. Science, 1998 Jan. 2, 279(5347):84-8. The cells are grown as monolayers in tissue culture flasks at 37° C. in a humidified atmosphere containing 5% CO2 and passaged every 3-5 days. […]

N#Cc1ccc(N2CCN(CC3CC4C=CC3C4)CC2)nc1 (centres unmarked) [Compound 34, 6-[4-(5-bicyclo[2.2.1]hept-2-enylmethyl)piperazin-1-yl]nicotinonitrile]
ACTIVITY (muscarinic modulation activity): +++ (exhibited muscarinic modulation activity for at least one muscarinic receptor, M1, M2, M3, M4, at a concentration of less than 5 μM)

c1cc(N2CCN(C3CC4CCC(C4)C3)CC2)ccn1 (centres unmarked) [Compound 35, 1-(3-bicyclo[3.2.1]octyl)-4-(4-pyridyl)piperazine]
ACTIVITY (muscarinic modulation activity): ++ (exhibited muscarinic modulation activity for at least one muscarinic receptor, M1, M2, M3, M4, at a concentration of between 30 μM and 5 μM)

CCOC(=O)N1C2CCC1CC(N1CCN(c3ccc(C(N)=O)cn3)CC1)C2 (centres unmarked) [Compound 36, 3-[4-(5-carbamoyl-2-pyridyl)piperazin-1-yl]-8-azabicyclo[3.2.1]octane-8-carboxylic acid ethyl ester]
ACTIVITY (muscarinic modulation activity): +++ (exhibited muscarinic modulation activity for at least one muscarinic receptor, M1, M2, M3, M4, at a concentration of less than 5 μM)

C1=CC2CC1CC2CN1CCC(n2nnc3ccccc32)CC1 (centres unmarked) [Compound 37, 1-[1-(5-bicyclo[2.2.1]hept-2-enylmethyl)-4-piperidyl]-1H-benzotriazole]
ACTIVITY (muscarinic modulation activity): + (exhibited muscarinic modulation activity for at least one muscarinic receptor, M1, M2, M3, M4, at a concentration of greater than 30 μM)

CCOC(=O)N1C2CCC1CC(CN1CCN(c3nccnc3C#N)CC1)C2 (centres unmarked) [Compound 38, 3-[[4-(3-cyanopyrazin-2-yl)piperazin-1-yl]methyl]-8-azabicyclo[3.2.1]octane-8-carboxylic acid ethyl ester]
ACTIVITY (muscarinic modulation activity): +++ (exhibited muscarinic modulation activity for at least one muscarinic receptor, M1, M2, M3, M4, at a concentration of less than 5 μM)

C1=CC2CC1CC2CN1CCN(c2cnccn2)CC1 (centres unmarked) [Compound 39, 2-[4-(5-bicyclo[2.2.1]hept-2-enylmethyl)piperazin-1-yl]pyrazine]
ACTIVITY (muscarinic modulation activity): + (exhibited muscarinic modulation activity for at least one muscarinic receptor, M1, M2, M3, M4, at a concentration of greater than 30 μM)

Cc1cnc(C)c(N2CCN(C3CC4CCC3C4)CC2)n1 (centres unmarked) [Compound 40, 2,5-dimethyl-3-(4-norbornan-2-ylpiperazin-1-yl)-pyrazine]
ACTIVITY (muscarinic modulation activity): −

C1=CC2CC1CC2CN1CCN(c2ccncc2)CC1 (centres unmarked) [Compound 41, 1-(5-bicyclo[2.2.1]hept-2-enylmethyl)-4-(4-pyridyl)piperazine]
ACTIVITY (muscarinic modulation activity): +++ (exhibited muscarinic modulation activity for at least one muscarinic receptor, M1, M2, M3, M4, at a concentration of less than 5 μM)

N#Cc1cccnc1N1CCN(CC2CC3C=CC2C3)CC1 (centres unmarked) [Compound 42, 2-[4-(5-bicyclo[2.2.1]hept-2-enylmethyl)piperazin-1-yl]nicotinonitrile]
ACTIVITY (muscarinic modulation activity): +++ (exhibited muscarinic modulation activity for at least one muscarinic receptor, M1, M2, M3, M4, at a concentration of less than 5 μM)

N#Cc1nccnc1N1CCN(C2CC3CCC2C3)CC1 (centres unmarked) [Compound 43, 3-(4-norbornan-2-ylpiperazin-1-yl)pyrazine-2-carbonitrile]
ACTIVITY (muscarinic modulation activity): −

c1cnc(N2CCN(C3CC4CCC3C4)CC2)cn1 (centres unmarked) [Compound 44, 2-(4-norbornan-2-ylpiperazin-1-yl)pyrazine]
ACTIVITY (muscarinic modulation activity): ++ (exhibited muscarinic modulation activity for at least one muscarinic receptor, M1, M2, M3, M4, at a concentration of between 30 μM and 5 μM)

N#Cc1cc(-c2ccccc2)cnc1N1CCN(CC2CC3CCC2C3)CC1 (centres unmarked) [Compound 46, 2-[4-(norbornan-2-ylmethyl)piperazin-1-yl]-5-phenyl-nicotinonitrile]
ACTIVITY (muscarinic modulation activity): ++ (exhibited muscarinic modulation activity for at least one muscarinic receptor, M1, M2, M3, M4, at a concentration of between 30 μM and 5 μM)

FC(F)(F)c1ccc(N2CCN(CC3CC4C=CC3C4)CC2)nc1 (centres unmarked) [Compound 47, 1-(5-bicyclo[2.2.1]hept-2-enylmethyl)-4-[5-(trifluoromethyl)-2-pyridyl]-piperazine]
ACTIVITY (muscarinic modulation activity): + (exhibited muscarinic modulation activity for at least one muscarinic receptor, M1, M2, M3, M4, at a concentration of greater than 30 μM)

C1=CC2CC1CC2CN1CCN(c2ccccn2)CC1 (centres unmarked) [Compound 48, 1-(5-bicyclo[2.2.1]hept-2-enylmethyl)-4-(2-pyridyl)piperazine]
ACTIVITY (muscarinic modulation activity): ++ (exhibited muscarinic modulation activity for at least one muscarinic receptor, M1, M2, M3, M4, at a concentration of between 30 μM and 5 μM)

CCOC(=O)N1C2CCC1CC(N1CCN(c3ccncc3S(N)(=O)=O)CC1)C2 (centres unmarked) [Compound 49, 3-[4-(3-sulfamoyl-4-pyridyl)piperazin-1-yl]-8-azabicyclo[3.2.1]octane-8-carboxylic acid ethyl ester]
ACTIVITY (muscarinic modulation activity): +++ (exhibited muscarinic modulation activity for at least one muscarinic receptor, M1, M2, M3, M4, at a concentration of less than 5 μM)

c1ccc2c(c1)nnn2C1CCN(C2CC3CCC2C3)CC1 (centres unmarked) [Compound 50, 1-(1-norbornan-2-yl-4-piperidyl)-1H-benzotriazole]
ACTIVITY (muscarinic modulation activity): ++ (exhibited muscarinic modulation activity for at least one muscarinic receptor, M1, M2, M3, M4, at a concentration of between 30 μM and 5 μM)

CCOC(=O)N1C2CCC1CC(N1CCN(c3ccc(C(C)=O)cn3)CC1)C2 (centres unmarked) [Compound 51, 3-[4-(5-acetyl-2-pyridyl)piperazin-1-yl]-8-azabicyclo[3.2.1]octane-8-carboxylic acid ethyl ester]
ACTIVITY (muscarinic modulation activity): +++ (exhibited muscarinic modulation activity for at least one muscarinic receptor, M1, M2, M3, M4, at a concentration of less than 5 μM)

Clc1cccnc1N1CCN(CC2CC3C=CC2C3)CC1 (centres unmarked) [Compound 52, 1-(5-bicyclo[2.2.1]hept-2-enylmethyl)-4-(3-chloro-2-pyridyl)-piperazine]
ACTIVITY (muscarinic modulation activity): ++ (exhibited muscarinic modulation activity for at least one muscarinic receptor, M1, M2, M3, M4, at a concentration of between 30 μM and 5 μM)

N#Cc1ccc(C(F)(F)F)nc1N1CCN(CC2CC3C=CC2C3)CC1 (centres unmarked) [Compound 53, 2-[4-(5-bicyclo[2.2.1]hept-2-enylmethyl)piperazin-1-yl]-6-(trifluoromethyl)nicotinonitrile]
ACTIVITY (muscarinic modulation activity): + (exhibited muscarinic modulation activity for at least one muscarinic receptor, M1, M2, M3, M4, at a concentration of greater than 30 μM)

N#Cc1cccnc1C1CCN(CC2CC3C=CC2C3)CC1 (centres unmarked) [Compound 54, 2-[1-(5-bicyclo[2.2.1]hept-2-enylmethyl)-4-piperidyl]nicotinonitrile]
ACTIVITY (muscarinic modulation activity): +++ (exhibited muscarinic modulation activity for at least one muscarinic receptor, M1, M2, M3, M4, at a concentration of less than 5 μM)
